Experimental data: patent publication US11298298B2, “Method for producing nonaqueous composition for external use on skin” (CHANEL PARFUMS BEAUTE, priority 2017, dated 2022)

Test: Particle size measurement by dynamic light scattering
Type: physicochemical
Conditions: steps (a) to (c) without palmitoyl-L-carnitine chloride
Protocol: [1] Particle Size Measurement
The particle size of particles contained in the nonaqueous composition for external use on the skin 1 week after preparation was measured by the dynamic light scattering method. Specifically, the measurement was performed on the number mode using a nanoparticle analysis system (Zetasizer Nano ZSP model manufactured by Malvern Instruments Ltd.).

- Particle size of composition containing particles of the surfactant alone: about 2.5 nm
Substance: sucrose erucic acid ester
